Data published in US5488060A, “Substituted thiadiazoles, compositions containing them and their use as antimicrobial and marine antifouling agents” (The Dow Chemical Company, priority 1994, dated 1996).
In brackets after ≈: the same amount, converted by molar mass. Like-named read-outs stand apart in the source and are kept apart here.

Experiments:
Assay type in all cases: cell-based
Bacillus subtilis (Bs) = experiment: Minimum inhibitory concentration (MIC) in nutrient agar, Bacillus subtilis
Procedure, shortened: (§1)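 Bacteria were grown 24 h at 30° C in nutrient broth with shaking, then diluted to 10^8 CFU/mL. These suspensions were stamped onto dried nutrient agar plates, neutral (pH 6.8) and alkaline (pH 8.2), that held compound at final 500–1.0 ppm. The plates were incubated 48 h at 30° C.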

[1] = system: Pseudomonas aeruginosa (Pa); experiment: Minimum inhibitory concentration (MIC) in nutrient agar, Pseudomonas aeruginosa; details: 30° C., 48 hours, read-out: Minimum Inhibitory Concentration, Pa
Procedure, shortened: as §1

[2] = system: Saccharomyces cerevisiae (Sc); experiment: Minimum inhibitory concentration (MIC) in malt yeast agar, Saccharomyces cerevisiae
Procedure, shortened: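 Malt yeast agar pH 5.5 + cpd (from 1% soln in acetone/water) at final 500–zero ppm, poured at 48 °C, dried 24 h. Inoculum: 7-day 30 °C slants suspended in saline/octylphenoxy polyethoxy ethanol, diluted 1:9, replicator-spotted. Incubated 30 °C; read 48 h yeast, 72 h fungi.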

Trichoderma viride (Tv) = experiment: Minimum inhibitory concentration (MIC) in malt yeast agar, Trichoderma viride
Procedure, shortened: (§2)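 Fungal inocula from 7-day malt yeast agar cultures (30° C) were suspended in saline with octylphenoxy polyethoxy ethanol, diluted 1:9, and spotted onto malt yeast agar (pH 5.5) containing test compound at 0–500 ppm. Growth assessed after 72 hours at 30° C to give MIC.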

Fusarium oxysporum (Fo) = experiment: Minimum inhibitory concentration (MIC) in malt yeast agar, Fusarium oxysporum
Procedure, shortened: as §2

Aspergillus niger (An) = experiment: Minimum inhibitory concentration (MIC) in malt yeast agar, Aspergillus niger; details: 72 h, pH 5.5, read-out: Minimum Inhibitory Concentration, An
Procedure, shortened: as §2

[3] = system: Penicillium chrysogenum (Pc); experiment: Minimum inhibitory concentration (MIC) in malt yeast agar, Penicillium chrysogenum; details: 72 h, pH 5.5, read-out: Minimum Inhibitory Concentration, PC
Procedure, shortened: as §2

[4] = 48 h, pH 8.2, read-out: Minimum Inhibitory Concentration, Bs
[5] = pH 6.8, nutrient agar, 30° C., 48 hours, read-out: Minimum Inhibitory Concentration, Bs

Row | Structure (SMILES) | MIC (Bacillus subtilis (Bs); [4]) [µg/mL] | MIC (Bacillus subtilis (Bs); [5]) [µg/mL] | MIC ([1]; pH 6.8, nutrient agar) [µg/mL] | MIC ([1]; pH 8.2, nutrient agar) [µg/mL] | MIC ([2]; pH 5.5, malt yeast agar, 30° C., 48 hours for yeast, read-out: Minimum Inhibitory Concentration, SC) [µg/mL] | MIC (Trichoderma viride (Tv); pH 5.5, malt yeast agar, 30° C., 72 hours for fungi, read-out: Minimum Inhibitory Concentration, Tv) [µg/mL] | MIC (Fusarium oxysporum (Fo); pH 5.5, malt yeast agar, 30° C., 72 hours for fungi, read-out: Minimum Inhibitory Concentration, Fo) [µg/mL] | MIC (Aspergillus niger (An)) [µg/mL] | MIC [3] [µg/mL] | MIC ([2]; 48 h, pH 5.5, read-out: Minimum Inhibitory Concentration, SC) [µg/mL] | MIC (Trichoderma viride (Tv); 72 h, pH 5.5, read-out: Minimum Inhibitory Concentration, Tv) [µg/mL] | MIC (Fusarium oxysporum (Fo); 72 h, pH 5.5, read-out: Minimum Inhibitory Concentration, Fo) [µg/mL]
1 | N#CSc1nsnc1-c1ccccc1 [Example I, 4-Phenyl-3-thiocyanato-1,2,5-thiadiazole] | 250 (≈ 1140 µM) | < 10 | > 500 | > 500 | < 1 | 2.5 (≈ 11.4 µM) | 2.5 (≈ 11.4 µM) | – | – | – | – | –
2 | N#CSCSc1nsnc1-c1ccccc1 [Example XVI, 4-Phenyl-3-thiocyanato-methylthio-1,2,5-thiadiazole] | 250 (≈ 942 µM) | < 10 | – | 250 (≈ 942 µM) | – | – | – | 2.5 (≈ 9.42 µM) | 2.5 (≈ 9.42 µM) | 2.5 (≈ 9.42 µM) | 10 (≈ 37.7 µM) | 5 (≈ 18.8 µM)
